{"source": "patent US5773430A", "about": "“Serine proteinase inhibitory activity by hydrophobic tetracycline” (Research Foundation of State University of New York, priority 1997, dated 1998)", "key": {"[1]": {"system": "human neutrophils (live PMN's)", "test": "Neutrophil (PMN + 0.5 nM PMA)-mediated R22-ECM hydrolysis (3H-proline cpm released in 6 h)", "format": "cell-based", "excerpt": "The activity of various tetracyclines was investigated employing an in vitro assay of inflammatory tissue injury in which human neutrophils are allowed to degrade a biosynthetically prepared complete interstitial stromal extracellular matrix (ECM). A neutrophil is one type of leukocyte (polymorphonuclear leukocyte). […] E. J. Roemer, K. J. Stanton, and S. R. Simon, \"In Vitro Assay Systems for Inflammatory Cell-Mediated Damage to Interstitial Extracellular Matrix,\" In Vitro Toxicol. 7,75-81 (1994); E. J. Roemer, K. J. Stanton, and S. R. Simon, \"In Vitro Assay Systems for Cell Interactions With Interstitial Extracellular Matrix,\" In Vitro Toxicol. 7,209-224 (1994).\nThe serine proteinase inhibiting activity of tetracyclines was tested using an in vitro assay of inflammatory tissue injury in which human neutrophils (live PMN's) were allowed to degrade a biosynthetically prepared complete interstitial stromal extracellular matrix (ECM) produced by cultured R22 rat heart smooth muscle cells as described by Roemer et al. (E. J. Roemer, K. J. Stanton, and S. R. Simon, \"In Vitro Assay Systems for Inflammatory Cell-Mediated Damage to Interstitial Extracellular Matrix,\" In Vitro Toxicol. 7,75-81 (1994); E. J. Roemer, K. J. Stanton, and S. R. Simon, \"In Vitro Assay Systems for Cell Interactions With Interstitial Extracellular Matrix,\" In Vitro Toxicol. 7,209-224 (1994)). Ten different chemically modified tetracyclines (CMTs) designated CMT-1 through CMT-10 and doxycycline, at concentrations ranging from 5 μM to 50 μM, were added to the ECM simultaneously with a suspension of 2×10^6 viable human PMN/mL in Hank's balanced salts solution (HBSS). In these studies, the ECM was metabolically radiolabeled with ^3 H-proline, and counts solubilized after six hours of incubation were measured and compared with counts released after incubation with PMN alone."}, "[2]": {"target": "T1, human leukocyte elastase (HLE) (Homo sapiens, UniProt P08246)", "T1 sequence (P08246 30-267)": "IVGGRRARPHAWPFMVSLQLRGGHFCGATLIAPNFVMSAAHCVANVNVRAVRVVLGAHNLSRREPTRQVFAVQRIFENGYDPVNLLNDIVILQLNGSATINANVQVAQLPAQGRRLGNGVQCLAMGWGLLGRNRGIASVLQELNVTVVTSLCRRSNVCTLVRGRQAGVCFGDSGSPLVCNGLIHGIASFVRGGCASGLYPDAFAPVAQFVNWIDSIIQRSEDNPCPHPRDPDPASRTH", "test": "ECM degradation mediated by purified HLE", "format": "biochemical", "procedure": "Direct inhibition of HLE by CMT-3 was determined (Example 2) using a modification of the assay of human leukocyte elastase (HLE) activity described by Ying et al. (Q. Ying, A. R. Rinehart, S. R. Simon, and J. C. Cheronis, \"Inhibition of Human Leukocyte Elastase by Ursolic Acid: Evidence for a Hydrophobic Binding Site for Pentacyclic Triterpenes,\" Biochem. J. 277, 521-526 (1991)) in which the organic solvent and detergent concentrations have been reduced, using a traditional assay of human leukocyte elastase (HLE) activity by measurement of the amidolysis of the chromogenic oligopeptide substrate, methoxysuccinyl-Ala-Ala-Pro-Val-p-nitroanilide. This oligopeptide is generally assumed to occupy the first five subsites of the extended substrate binding domain in HLE. […] When CMT-3 is employed in the assay of ECM degradation mediated by purified HLE rather than live neutrophils, it proves to be an effective inhibitor, with an apparent I50 of ~25-50 μM.\nThe capacity of CMT-3 to inhibit HLE is not confined to amidolytic assays, as already shown in FIG. 2, in which the degradation of a complete interstitial extracellular matrix by purified HLE is inhibited by CMT-3."}, "leukocyte elastase [3]": {"system": "leukocyte elastase", "test": "Leukocyte elastase activity in gingival extracts of LPS-injected rats", "format": "in vivo, rat", "conditions": "2 mg or 5 mg CMT-3 daily, oral gavage, six days, succinyl-Ala-Ala-Ala-p-nitroanilide", "procedure": "Rats received 0.01 mg of E. coli lipopolysaccharide (LPS) or only a vehicle of saline injected in a volume of 10 μl into the maxillary and mandibular labial gingiva on alternate days for a period of six days. Two sets of rats also received 2 mg or 5 mg CMT-3 daily in a volume of 1 ml, administered by oral gavage, for the six day period, while the other sets of rats received only the vehicle of 2% carboxymethylcellulose. At the end of the six day treatment period, the animals were sacrificed and the gingival tissues were dissected. The tissues from each experimental group were pooled, frozen and thawed, and extracted for assays of enzymatic activity according to the procedure of Yu et al. (Z. Yu, N. S. Ramamurthy, M. Leung, K. M. Chang, T. F. McNamara, and L. M. Golub, \"Chemically Modified Tetracycline Normalizes Collagen Metabolism in Diabetic Rats,\" J. Periodont. Res. 28, 420-428 (1993)). Leukocyte elastase activity was assayed using the substrate succinyl-Ala-Ala-Ala-p-nitroanilide according to the procedure of Ramamurthy and Golub (1983) (N. S. Ramamurthy, and L. M. Golub, \"Diabetes Increases Collagenase Activity in Extracts of Rat Gingiva and Skin,\" J. Periodont. Res. 18, 23-30 (1983)). The finding reported here is the capacity of orally administered CMT-3 to reduce the level of leukocyte elastase activity in the gingival extracts of LPS-injected rats. […]"}, "leukocyte elastase [4]": {"target": "T2, leukocyte elastase (Homo sapiens, UniProt P08246)", "T2 sequence (P08246 30-247)": "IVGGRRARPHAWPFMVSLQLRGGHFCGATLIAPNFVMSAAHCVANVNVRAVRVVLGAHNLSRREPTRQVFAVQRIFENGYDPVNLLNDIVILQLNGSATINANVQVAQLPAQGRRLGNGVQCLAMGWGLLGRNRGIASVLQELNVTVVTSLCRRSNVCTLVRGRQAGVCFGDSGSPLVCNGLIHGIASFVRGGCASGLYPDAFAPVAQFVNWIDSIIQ", "test": "Leukocyte elastase inhibitory activity", "format": "biochemical"}, "[5]": {"target": "T1, human leukocyte elastase (HLE)", "test": "HLE amidolytic activity (methoxysuccinyl-Ala-Ala-Pro-Val-p-nitroanilide)", "format": "biochemical", "excerpt": "This oligopeptide is generally assumed to occupy the first five subsites of the extended substrate binding domain in HLE.\nTo avoid time-dependent adsorption of HLE onto the wells of the 96-well microplates used in the amidolytic assays, the plates were pretreated with a solution of 0.2% bovine serum albumin. […] The […] concentration at which the Dixon plots intersect is a measure of Ki for the inhibitor.\nThe inhibitory activity of doxycycline towards amidolysis of methoxysuccinyl-Ala-Ala-Pro-Val-p-nitroanilide by HLE was also determined in the presence of 2% DMSO and no detergent, as described above for CMT-3."}, "[6]": {"target": "T1, human leukocyte elastase (HLE)", "test": "HLE amidolytic activity (methoxysuccinyl-Ala-Ala-Pro-Val-p-nitroanilide)", "format": "biochemical", "conditions": "in the presence of 10% dimethylsulfoxide and 0.1% Triton X-100"}}, "note": "“Also recorded” adds a separate entry of the source. Where two headings read alike, the source gives them in different places."}
{"smiles": "NC(=O)C1=C(O)C2(O)C(=O)C3=C(O)c4c(O)cccc4CC3CC2CC1=O", "note": "(stereo not drawn) [CMT-3, 6-demethyl-6-deoxy-4-de(dimethylamino)tetracycline]", "values": [{"measurement": "inhibition of neutrophil-mediated ECM degradation", "setting": "[1]", "result": "~ 50%"}, {"measurement": "capacity to inhibit ECM degradation (protecting the ECM from neutrophil-mediated destruction), in words", "setting": "[1]; 30 μM, FIG. 1", "result": "far superior to other tetracyclines in protecting the ECM from neutrophil-mediated destruction"}, {"measurement": "inhibition of ECM degradation, in words", "setting": "[1]; 5-50 μM, Table 1 and FIG. 1", "result": "good inhibition of ECM degradation at all doses employed in this assay"}, {"measurement": "inhibition of neutrophil-mediated ECM degradation", "setting": "[1]; 25-50 μM, dose response studies", "result": "approximately 50%"}, {"measurement": "activity at 5 µM", "setting": "[1]; Homo sapiens, Neutrophil, 5 μm, control = hydrolysis in absence of any inhibitor normalized to 100%, 6 h at 37° C.", "result": 69, "unit": "%"}, {"measurement": "activity at 25 µM", "setting": "[1]; Homo sapiens, Neutrophil, 25 μm, control = hydrolysis in absence of any inhibitor normalized to 100%, 6 h at 37° C.", "result": 55, "unit": "%"}, {"measurement": "activity at 50 µM", "setting": "[1]; Homo sapiens, Neutrophil, 50 μm, control = hydrolysis in absence of any inhibitor normalized to 100%, 6 h at 37° C.", "result": 50, "unit": "%"}, {"measurement": "inhibition of HLE-mediated degradation of ECM, in words", "setting": "[2]; FIG. 2: 25 μM CMT-3, 10 μM purified HLE, compared with PMN, other tetracyclines at comparable doses", "result": "comparable inhibition of human neutrophil-mediated and human leukocyte elastase-mediated degradation of extracellular matrix; also recorded: comparable to that determined from the assays of HLE amidolytic activity"}, {"measurement": "IC50", "setting": "[2]; purified HLE rather than live neutrophils, read-out: apparent I50, ECM degradation mediated by purified HLE", "result": "25 to 50", "unit": "µM"}, {"measurement": "leukocyte elastase activity in gingival extracts, in words", "setting": "leukocyte elastase [3]", "result": "reduced the activity of leukocyte elastase; also recorded: to the levels detected in animals receiving gingival injections of saline solution alone"}, {"measurement": "leukocyte elastase inhibitory activity, in words", "setting": "leukocyte elastase [4]", "result": "substantial leukocyte elastase inhibitory activity"}, {"measurement": "Ki", "setting": "[5]; 2% DMSO, no detergent, 100 μM through 300 μM substrate, Dixon plot, read-out: Ki for inhibition of amidolytic activity of HLE", "result": "25 to 40", "unit": "µM"}, {"measurement": "mechanism of inhibition of HLE amidolytic activity", "setting": "[5]; Dixon and Cornish-Bowden plots", "result": "predominantly competitive inhibitor"}, {"measurement": "Ki", "setting": "[5]; Dixon and Cornish-Bowden plots, FIGS. 3-5, read-out: apparent K1, inhibition of amidolysis", "result": "18 to 40", "unit": "µM"}, {"measurement": "inhibitory potency, HLE amidolytic activity, in words", "setting": "[6]", "result": "markedly reduced"}]}
